Here are results for 44 molecules from PMC8386747, “Structure–activity relationship, in vitro and in vivo evaluation of novel dienyl sulphonyl fluorides as selective BuChE inhibitors for the treatment of Alzheimer's disease” (Journal of Enzyme Inhibition and Medicinal Chemistry, 2021).

The target in one series is T1, BuChE from equine serum (Equus caballus, UniProt P81908).
T1 construct: BuChE from equine serum (C4290-1KU; Sigma); purchased Sigma C4290-1KU; host or cells: equine serum
Briefly: eqBuChE inhibition assay (Ellman's method). It counts as biochemical. Particulars: BuChE from horse serum; for IC50: mean ± SEM; for inhibition at 20 µM: read-out: BuChE % inhibition at 20 µM.

The next series addresses T2, AChE from electric eel (Electrophorus electricus, UniProt O42275).
T2 construct: assays were performed on AChE from electric eel (C3389-500UN; Sigma); purchased Sigma C3389-500UN
Briefly: EeAChE inhibition assay (Ellman's method). It counts as biochemical. Particulars: for inhibition at 20 µM: read-out: AChE % inhibition at 20 µM; for IC50: mean ± SEM, read-out: AChE IC50. (Ellman's reagent forms a yellow product with free thiols.)

For series [1] the following is noted: for BBB penetration: PAMPA-BBB class. Background: PAMPA measures passive passage across an artificial lipid membrane.
Procedure: (§1) The 96-well UV plate (COSTAR) was manufactured by Corning Corporation, USA, and the commercially available drugs and test compounds were initially dissolved in DMSO at a concentration of 20 mg/mL. The solution was then diluted 200-fold with PBS (pH 7.4 ± 0.1)/EtOH (70/30, v/v) solution to a final concentration of 100 µg/mL.
(§2) The test compound was dissolved in DMSO at 5 mg/mL and diluted 200-fold with universal buffer (final concentration 25 µg/mL) to prepare the secondary stock solution; 200 µL of the secondary stock solution was added to the donor well; the acceptor plate was coated with 4 µL of 20 mg/mL dodecyl porcine polar brain, and then, 200 µL of pH 7.4 universal buffer was added to the acceptor well; the acceptor plate was carefully placed on the donor plate to form a “sandwich” and maintained for 18 h; the drug concentrations in the acceptor, donor and reference wells were determined using a UV microplate reader; the experiment was repeated three times, and the concentrations of the test compound in the donor and acceptor wells were measured using a UV plate spectral reader (PerkinElmer VICT or Nivo, Finland). In at least three independent experiments, each sample was analysed at three wavelengths in a four well.
A further series can be described thus: in vitro. Particulars: PAMPA, PAMPA-BBB.
[2] abbreviates: AChE from electric eel, 20 µM, na = no inhibitory activity at 20 µM.

Like-named read-outs stand apart in the source and are kept apart here.

T2 sequence (O42275 24-633): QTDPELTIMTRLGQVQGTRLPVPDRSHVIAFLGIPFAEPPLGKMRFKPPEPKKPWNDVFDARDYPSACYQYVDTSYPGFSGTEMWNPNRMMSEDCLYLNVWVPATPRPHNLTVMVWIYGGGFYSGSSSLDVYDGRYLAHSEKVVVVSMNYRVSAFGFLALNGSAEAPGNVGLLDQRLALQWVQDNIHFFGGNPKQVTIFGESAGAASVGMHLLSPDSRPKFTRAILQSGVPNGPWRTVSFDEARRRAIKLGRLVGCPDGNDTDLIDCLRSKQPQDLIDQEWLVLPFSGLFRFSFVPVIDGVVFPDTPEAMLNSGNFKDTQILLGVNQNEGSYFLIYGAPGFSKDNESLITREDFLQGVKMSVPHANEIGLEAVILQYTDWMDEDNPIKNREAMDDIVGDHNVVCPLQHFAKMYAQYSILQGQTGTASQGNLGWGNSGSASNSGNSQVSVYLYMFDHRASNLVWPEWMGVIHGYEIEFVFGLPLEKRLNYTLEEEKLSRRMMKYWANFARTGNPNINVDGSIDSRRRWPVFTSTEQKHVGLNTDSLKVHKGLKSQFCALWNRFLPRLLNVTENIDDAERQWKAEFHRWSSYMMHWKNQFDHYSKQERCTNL
T1 sequence (P81908 whole entry): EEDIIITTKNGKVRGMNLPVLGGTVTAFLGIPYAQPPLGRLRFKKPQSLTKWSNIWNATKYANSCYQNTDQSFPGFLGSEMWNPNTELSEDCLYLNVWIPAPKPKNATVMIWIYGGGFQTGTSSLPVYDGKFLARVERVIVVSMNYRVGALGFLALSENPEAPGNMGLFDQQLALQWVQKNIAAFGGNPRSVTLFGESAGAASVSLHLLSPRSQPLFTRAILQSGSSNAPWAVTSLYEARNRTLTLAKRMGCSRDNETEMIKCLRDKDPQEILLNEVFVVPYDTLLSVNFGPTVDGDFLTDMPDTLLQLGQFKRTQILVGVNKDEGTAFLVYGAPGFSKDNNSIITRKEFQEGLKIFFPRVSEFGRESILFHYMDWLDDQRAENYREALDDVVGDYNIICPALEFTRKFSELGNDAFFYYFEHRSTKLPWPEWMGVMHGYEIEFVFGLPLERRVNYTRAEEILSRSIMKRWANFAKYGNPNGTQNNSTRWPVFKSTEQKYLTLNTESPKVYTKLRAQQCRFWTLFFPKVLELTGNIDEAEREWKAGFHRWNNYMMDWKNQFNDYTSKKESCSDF
Procedure for AChE from electric eel: (§3) According to the Ellman’s method, assays were performed on AChE from electric eel (C3389-500UN; Sigma) and BuChE from equine serum (C4290-1KU; Sigma). The experiment was performed in 48-well plates in a final volume of 500 µL. Each well contained 0.036 U/mL of eeAChE or eqBuChE, and 0.1 M pH 8 PBS. They were pre-incubated for 20 min at different compound concentrations at 37 °C. […] The DTNB produces the yellow anion 5-thio-2-nitrobenzoic acid along with the enzymatic degradation of ACh or BuCh. Changes in absorbance were measured at 410 nm after 20 min in a PerkinElmer VICTOR Nivo reader. The IC50 values were calculated graphically from inhibition curves (log inhibitor concentration vs percent of inhibition). A control experiment was performed under the same conditions without inhibitor and the blank contained buffer, DMSO, DTNB, and substrate.
Procedure for BuChE from equine serum: as §3
Procedure for in vitro: as §1, §2

Broadly, the IC50 is the concentration needed to halve the response being measured. Take `O=S(=O)(F)C(Br)=CC=Cc1cccs1` [Compound A13]: half-maximal inhibition against BuChE from equine serum (IC50) required 320 ± 60 nM.
Same read-out and setting: the figure for `Cc1cccc(C=CC=C(Br)S(=O)(=O)F)c1` [Compound A15] is 600 ± 120 nM.
Broadly, the inhibition is the drop in the measured response relative to a control, in per cent. Turning to `O=S(=O)(F)C(Br)=CC=Cc1ccc(-c2ccccc2)cc1` [Compound A7], the values for the inhibition at 20 µM on AChE from electric eel (setting [2]) and at BuChE from equine serum were 11.9 ± 0.5% and 45.2 ± 2%, respectively.
The like results for `Cc1ccc(S(=O)(=O)n2cc(C=CC=C(Br)S(=O)(=O)F)c3ccccc32)cc1` [Compound A19] were, in that order, 46.2 ± 0.4% and 46 ± 1.6%.
The like results for `Cc1ccc(C#C/C(=C\C=C\c2ccccc2)S(=O)(=O)F)cc1` [Compound D12] were, in that order, 43.5 ± 4% and 34.7 ± 0.1%.
As to `O=S(=O)(F)C(Br)=CC=Cc1ccc2ccccc2c1` [Compound A12], it took 2910 ± 260 nM to reach half-maximal inhibition against BuChE from equine serum (IC50).
Turning to `CSc1ccc(/C(=C\C=C\c2ccccc2)S(=O)(=O)F)cc1` [Compound D2], the inhibition at 20 µM at AChE from electric eel (setting [2]) turned out to be 25.5 ± 0.4%; on BuChE from equine serum, 28.2 ± 1.89%.
With `Cc1ccccc1C=CC=C(Br)S(=O)(=O)F` [Compound A9], the inhibition at 20 µM on AChE from electric eel (setting [2]) was 23.2 ± 4%. On BuChE from equine serum, this molecule returned an IC50 of 300 ± 110 nM.
In the case of `O=S(=O)(F)/C(C#Cc1ccccc1F)=C/C=C/c1ccccc1` [Compound D9], the inhibition at 20 µM at AChE from electric eel (setting [2]) was found to be 47.7 ± 1.9%; at BuChE from equine serum, 31.7 ± 1%.
For `O=S(=O)(F)C(Br)=CC=Cc1cccc(Cl)c1` [Compound A14], the inhibition at 20 µM on AChE from electric eel (setting [2]) worked out at 17.9 ± 2%. Moreover, the concentration for half-maximal inhibition (IC50) against BuChE from equine serum came out at 110 ± 20 nM.
The like results for `O=S(=O)(F)/C(I)=C/C=C/c1cccc(C(F)(F)F)c1` [Compound C6] were, in that order, 24 ± 6% and 500 ± 40 nM.
Turning to `O=S(=O)(F)/C(=C/C=C/c1ccccc1)c1ccc2ccccc2c1` [Compound D7], the inhibition at 20 µM at AChE from electric eel (setting [2]) was 42.3 ± 0.5%; on BuChE from equine serum, 7.4 ± 0.2%.
As to `COc1cccc(C=CC=C(Br)S(=O)(=O)F)c1` [Compound A16], the inhibition at 20 µM on AChE from electric eel (setting [2]) amounted to 35.9 ± 1.4%. Besides, it took 300 ± 40 nM to reach half-maximal inhibition on BuChE from equine serum (IC50).
Regarding `O=S(=O)(F)/C(C#Cc1ccsc1)=C/C=C/c1ccccc1` [Compound D13], the inhibition at 20 µM was found to be 14.7 ± 0.2% on AChE from electric eel (setting [2]) and 31.3 ± 0.4% on BuChE from equine serum.
`COc1ccc(C=CC=C(Br)S(=O)(=O)F)cc1` [Compound A6] had an IC50 at BuChE from equine serum of 310 ± 40 nM.
Regarding `O=S(=O)(F)/C(C#Cc1cccc(Br)c1)=C/C=C/c1ccccc1` [Compound D8], the IC50 on AChE from electric eel (AChE from electric eel) amounted to 2730 ± 100 nM; against BuChE from equine serum, 4560 ± 2650 nM.
On to `O=[N+]([O-])c1ccccc1C=CC=C(Br)S(=O)(=O)F` [Compound A11], for which the IC50 at AChE from electric eel (AChE from electric eel) stood at 150 ± 10 nM; at BuChE from equine serum, 270 ± 150 nM.
As for `O=S(=O)(F)/C(Cl)=C/C=C/c1cccc(C(F)(F)F)c1` [Compound B6], the inhibition at 20 µM on AChE from electric eel (setting [2]) amounted to 26.8 ± 2.7%. Besides, inhibition against BuChE from equine serum was half-maximal at 500 ± 210 nM (IC50).
For the molecule `O=S(=O)(F)C(Br)=CC=Cc1ccc(Cl)cc1` [Compound A3], the “AChE % inhibition at 20 µM” value on AChE from electric eel (setting [2]) amounted to 33.9 ± 0.9%. In addition, the “BuChE % inhibition at 20 µM” value at BuChE from equine serum turned out to be 42.2 ± 2.1%.
Regarding `O=S(=O)(F)/C(I)=C/C=C/c1ccccc1` [Compound C1, δ-phenyl-α-I-dienyl sulphonyl fluoride], the inhibition at 20 µM at AChE from electric eel (setting [2]) stood at 23.4 ± 2.8%. This molecule also registered an IC50 on BuChE from equine serum of 1760 ± 620 nM.
As for `O=S(=O)(F)/C(I)=C/C=C/c1ccc(Br)cc1` [Compound C4], the inhibition at 20 µM at AChE from electric eel (setting [2]) was 10.5 ± 3.6%. This molecule returned an IC50 at BuChE from equine serum of 570 ± 30 nM.
By Papp is commonly meant a coefficient for how fast a substance crosses the barrier. As for `O=S(=O)(F)C(Br)=CC=Cc1ccccc1Br` [Compound A8], in series [1], the BBB penetration entry was “CNS+ (“CNS +” (high BBB permeation): Pe (× 10^‒6 cm/s) >4.0)”. Moreover, in series [1] (PAMPA-BBB, three independent experiments), the “Pe×10^-6cm/s Exp. value” is on record as 10.7 ×10^-6cm/s. This molecule returned a Papp in “in vitro” (pH 7.4, Pe) of 10.7 ×10⁻⁶ cm/s. In addition, the figures for the IC50 on AChE from electric eel (AChE from electric eel) and against BuChE from equine serum were 107 ± 2 nM and 440 ± 180 nM, respectively.
Turning to `O=C(Oc1ccc(/C(=C\C=C\c2ccccc2)S(=O)(=O)F)cc1)c1ccccc1` [Compound D6], the inhibition at 20 µM was 18.7 ± 2.1% at AChE from electric eel (setting [2]) and 29.7 ± 3.8% on BuChE from equine serum.
As for `O=S(=O)(F)C(Br)=CC=CC=Cc1ccccc1` [Compound A20], at AChE from electric eel, the inhibition at 20 µM worked out at 18.7 ± 2.4%. The molecule further gave a half-maximal inhibitory concentration (IC50) at BuChE from equine serum of 12500 nM.
In the case of `CC(=O)[C@H]1CC[C@H]2[C@@H]3CCC4=CC(=O)CC[C@]4(C)[C@H]3CC[C@]12C` [Progesterone, reference compound], in series [1], the BBB penetration entry is “CNS+ (“CNS +” (high BBB permeation): Pe (× 10^‒6 cm/s) >4.0)”. This molecule displayed a Papp in the series “in vitro” (pH 7.4, Pe×10^-6cm/s Exp. value, three independent experiments) of 18.2 ×10⁻⁶ cm/s.
For `COc1ccccc1/C=C/C=C(\Cl)S(=O)(=O)F` [Compound B5], the inhibition at 20 µM at AChE from electric eel (setting [2]) turned out to be 34.2 ± 0.4%. In addition, the IC50 at BuChE from equine serum amounted to 130 ± 10 nM.
On to `O=S(=O)(F)/C(C#CC1CC1)=C/C=C/c1ccccc1` [Compound D14], for which the IC50 at AChE from electric eel (AChE from electric eel) amounted to 1540 ± 320 nM; at BuChE from equine serum, 430 ± 80 nM.
Take `O=S(=O)(F)/C(Cl)=C/C=C/c1ccc(F)cc1` [Compound B2]: on AChE from electric eel (setting [2]), the inhibition at 20 µM was found to be 18.7 ± 1.7%. At BuChE from equine serum, it took 510 ± 10 nM to reach half-maximal inhibition (IC50).
The like results for `COc1ccc(/C=C/C=C(\Cl)S(=O)(=O)F)cc1` [Compound B4] were, in that order, 30.1 ± 3.8% and 540 ± 190 nM.
The like results for `COc1ccccc1/C=C/C=C(\I)S(=O)(=O)F` [Compound C5] were, in that order, 39.5 ± 0.3% and 190 ± 40 nM.
The matching figures for `CCc1ccc(/C(=C\C=C\c2ccccc2)S(=O)(=O)F)cc1` [Compound D1]: 25.1 ± 1.6% and 1180 ± 330 nM.
Consider `Cc1ccc(C=CC=C(Br)S(=O)(=O)F)cc1` [Compound A5], for which the 50% inhibitory concentration (IC50) at BuChE from equine serum was 1720 ± 340 nM.
As for `O=S(=O)(F)/C(I)=C/C=C/c1ccc(F)cc1` [Compound C2], at AChE from electric eel (setting [2]), the inhibition at 20 µM is 17 ± 1.7%. The molecule further showed an IC50 on BuChE from equine serum of 450 ± 30 nM.
With `O=S(=O)(F)/C(Cl)=C/C=C/c1ccccc1` [Compound B1], at AChE from electric eel (setting [2]), the inhibition at 20 µM came to 35.9 ± 1.4%. Also, the IC50 against BuChE from equine serum turned out to be 440 ± 40 nM.
Consider `O=S(=O)(F)C(Br)=CC=Cc1cccc(C(F)(F)F)c1` [Compound A17], for which the inhibition at 20 µM at AChE from electric eel (setting [2]) amounted to 12.1 ± 0.7%. For the same molecule, the IC50 against BuChE from equine serum turned out to be 430 ± 30 nM.
In the case of `O=S(=O)(F)/C(=C/C=C/c1ccccc1)c1ccc(Br)cc1` [Compound D5], the inhibition at 20 µM at AChE from electric eel (setting [2]) was 29 ± 3.4%; at BuChE from equine serum it was 30.5 ± 0.9%.
Take `O=S(=O)(F)C(Br)=CC=Cc1ccc(Br)cc1` [Compound A4]: the “BuChE % inhibition at 20 µM” value on BuChE from equine serum is given as 19.2 ± 1.2%.
Consider `O=S(=O)(F)C(Br)=CC=Cc1ccc(F)cc1` [Compound A2], for which, at BuChE from equine serum, the IC50 is 430 ± 10 nM.
On to `O=S(=O)(F)/C(C#Cc1ccccc1)=C/C=C/c1ccccc1` [Compound D11], for which the inhibition at 20 µM at AChE from electric eel (setting [2]) is 30.4 ± 0.1%; on BuChE from equine serum, 24.3 ± 0.4%.
Turning to `O=S(=O)(F)/C(I)=C/C=C/c1ccc(Cl)cc1` [Compound C3], the inhibition at 20 µM on AChE from electric eel (setting [2]) stood at 38.9 ± 2.5%. At BuChE from equine serum, this molecule gave an IC50 of 3070 ± 1720 nM.
As to `COc1ccc(/C(=C\C=C\c2ccccc2)S(=O)(=O)F)cc1` [Compound D3], the inhibition at 20 µM turned out to be 47.9 ± 0.4% on AChE from electric eel (setting [2]) and 33.7 ± 1.8% on BuChE from equine serum.
The like results for `O=S(=O)(F)/C(=C/C=C/c1ccccc1)c1ccc(Oc2ccccc2)cc1` [Compound D4] were, in that order, 36.7 ± 2.8% and 41.2 ± 1.1%.
Consider `O=S(=O)(F)C(Br)=CC=Cc1ccccc1` [Compound A1, δ-phenyl-α-Br-dienyl sulphonyl fluoride], for which the concentration for half-maximal inhibition (IC50) against BuChE from equine serum is 82 ± 7 nM.
Consider `O=S(=O)(F)/C(C#Cc1ccc(Br)cc1)=C/C=C/c1ccccc1` [Compound D10], for which the values for the inhibition at 20 µM on AChE from electric eel (setting [2]) and at BuChE from equine serum were 36.9 ± 1.2% and 22.6 ± 0.7%, respectively.
